Measured values as given in ChEMBL document CHEMBL1201862, “PubChem BioAssay data set” (2004).
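These data come from cells grown in 96-well plates and exposed to compound for 48 hours at five concentrations. GI50 is the concentration that inhibits growth by half.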 Active and inactive are the calls of the source. No stated cut-off is given here; in the data, active = GI50 up to about 1.1 µM and inactive = higher.

Tests used:
Test in all cases: inhibition of tumour cell growth, NCI panel, 48 h
SF-268 = tested on: SF-268
HCT-116 = tested on: HCT-116
CCRF-CEM = tested on: CCRF-CEM
LOX IMVI = tested on: LOX IMVI
UACC-257 = tested on: UACC-257
HL-60 = tested on: HL-60
IGROV-1 = tested on: IGROV-1
SK-MEL-5 = tested on: SK-MEL-5
UO-31 = tested on: UO-31
SR = tested on: SR
SF-539 = tested on: SF-539
SK-MEL-28 = tested on: SK-MEL-28
HOP-62 = tested on: HOP-62
K562 = tested on: K562
OVCAR-8 = tested on: OVCAR-8
RXF 393 = tested on: RXF 393
Malme-3M = tested on: Malme-3M
T47D = tested on: T47D
MCF7 = tested on: MCF7

Measured: GI50

CCCC1C[C@H]2CCCCN2[C@H]2CCCN12 (stereo partly specified)
inactive: SF-268 > 100 µM | HCT-116 > 45.2 µM | CCRF-CEM > 45.9 µM | LOX IMVI > 39.4 µM | UACC-257 > 100 µM | HL-60 > 37.8 µM | IGROV-1 > 100 µM | SK-MEL-5 > 100 µM | UO-31 > 100 µM | SR > 40.6 µM | SF-539 > 100 µM | SK-MEL-28 > 100 µM | HOP-62 > 100 µM | K562 > 50.2 µM | OVCAR-8 > 100 µM | RXF 393 > 48.2 µM | Malme-3M > 100 µM

Cc1ccccc1NC(=N)Nc1ccccc1C
inactive: SF-268 > 100 µM | T47D > 100 µM | HCT-116 > 100 µM | CCRF-CEM > 100 µM | LOX IMVI > 100 µM | UACC-257 > 100 µM | HL-60 > 100 µM | IGROV-1 > 100 µM | SK-MEL-5 > 100 µM | MCF7 > 100 µM | SF-539 > 100 µM | SK-MEL-28 > 100 µM | HOP-62 > 100 µM | K562 > 100 µM | OVCAR-8 > 100 µM | RXF 393 > 100 µM | Malme-3M > 100 µM

CCCCCCCCCCCCCCCc1nnc(SCC(=O)O)[nH]1
inactive: SF-268 42 µM | HCT-116 92.7 µM | CCRF-CEM 24.2 µM | LOX IMVI 33.4 µM | UACC-257 > 100 µM | HL-60 34.8 µM | IGROV-1 36.1 µM | SK-MEL-5 > 100 µM | UO-31 49.9 µM | SR 60 µM | SF-539 48 µM | SK-MEL-28 80.7 µM | HOP-62 > 100 µM | K562 16.4 µM | OVCAR-8 40.8 µM | RXF 393 > 100 µM | Malme-3M > 100 µM

CC(=O)C1Cn2c(=O)c3cc4ccccc4cc3c(=O)n2C=C1C (stereo unspecified)
inactive: SF-268 > 100 µM | HCT-116 > 100 µM | CCRF-CEM > 100 µM | LOX IMVI > 100 µM | UACC-257 > 100 µM | HL-60 > 100 µM | IGROV-1 > 100 µM | SK-MEL-5 91.4 µM | UO-31 > 100 µM | SR > 100 µM | SF-539 > 100 µM | SK-MEL-28 > 100 µM | HOP-62 > 100 µM | K562 > 100 µM | OVCAR-8 > 100 µM | RXF 393 > 100 µM | Malme-3M > 100 µM

O=[N+]([O-])c1ccc(C[P+]2(c3ccccc3)CCCCC2)cc1.[O-][Cl+3]([O-])([O-])[O-]
inactive: HCT-116 > 100 µM | CCRF-CEM > 100 µM | LOX IMVI > 100 µM | UACC-257 > 100 µM | HL-60 > 100 µM | IGROV-1 > 100 µM | SK-MEL-5 > 100 µM | UO-31 > 100 µM | SR > 100 µM | SF-539 > 100 µM | SK-MEL-28 > 100 µM | HOP-62 > 100 µM | K562 > 100 µM | OVCAR-8 > 100 µM | RXF 393 > 100 µM | Malme-3M > 100 µM

Cc1ccc(S(=O)(=O)Nc2cccc3c(=O)nc[nH]c23)cc1
inactive: SF-268 > 100 µM | HCT-116 99.3 µM | CCRF-CEM 37.2 µM | LOX IMVI 96.6 µM | UACC-257 > 87.5 µM | HL-60 23.3 µM | IGROV-1 > 100 µM | SK-MEL-5 43.9 µM | UO-31 > 68.1 µM | SR 10.7 µM | SF-539 > 100 µM | SK-MEL-28 > 100 µM | HOP-62 > 100 µM | K562 43.6 µM | OVCAR-8 > 100 µM | RXF 393 > 65.3 µM | Malme-3M > 100 µM
